Consider 15 compounds from ChEMBL document CHEMBL3763077, “Discovery of pyrrolospirooxindole derivatives as novel cyclin dependent kinase 4 (CDK4) inhibitors by catalyst-free, green approach” (Eur J Med Chem, 2016).

Calls of active or inactive are those of the source. The rule behind the calls is not given here.

The subject of one assay is HeLa. Description: Cytotoxicity against human HeLa cells assessed as cell growth inhibition after 48 hrs by MTT assay. The assay is classed as functional, cell-based. On the technique in general: Tetrazolium dyes change colour on reduction, which living cells bring about.
For a further assay, the system named is A549. Description: Cytotoxicity against human A549 cells assessed as cell growth inhibition after 48 hrs by MTT assay. The format is functional, cell-based. Particulars: A549, 48 h.
The nature of assay [1]: Cytotoxicity against human DU145 cells assessed as cell growth inhibition after 48 hrs by MTT assay. The assay is classed as functional, cell-based. Particulars: DU-145, 48 h.
The next assay concerns HT-29. Description: Cytotoxicity against human HT-29 cells assessed as cell growth inhibition after 48 hrs by MTT assay. The format is functional, cell-based. Particulars: HT-29, 48 h.
A further assay relates to MDA-MB-231. The assay can be described thus: Cytotoxicity against human MDA-MB-231 cells assessed as cell growth inhibition after 48 hrs by MTT assay. The format is functional, cell-based. Particulars: MDA-MB-231, 48 h.
A short description of assay [2]: Cell cycle arrest in human DU145 cells assessed as accumulation at sub G1 phase at 1 uM after 48 hrs by propidium iodide staining based flow cytometry (reference value: 8.20 %). The assay is classed as functional. Particulars: DU-145.
A short description of assay [3]: Cell cycle arrest in human DU145 cells assessed as accumulation at G0/G1 phase at 1 uM after 48 hrs by propidium iodide staining based flow cytometry (reference value: 81.67 %). Particulars: DU-145. The assay is classed as functional.
The nature of assay [4]: Cell cycle arrest in human DU145 cells assessed as accumulation at S phase at 1 uM after 48 hrs by propidium iodide staining based flow cytometry (reference value: 1.59 %). The format is functional. Particulars: DU-145. (In general: Flow cytometry measures light scatter and fluorescence of single cells or particles in a stream.)
The nature of assay [5]: Cell cycle arrest in human DU145 cells assessed as accumulation at G2/M phase at 1 uM after 48 hrs by propidium iodide staining based flow cytometry (reference value: 5.96 %). Particulars: DU-145. The format is functional.
Assay [6] is described as follows: Cell cycle arrest in human DU145 cells assessed as accumulation at sub G1 phase at 2 uM after 48 hrs by propidium iodide staining based flow cytometry (reference value: 8.20 %). The assay is classed as functional. Particulars: DU-145.
Assay [7] can be described thus: Cell cycle arrest in human DU145 cells assessed as accumulation at G0/G1 phase at 2 uM after 48 hrs by propidium iodide staining based flow cytometry (reference value: 81.67 %). The format is functional. Particulars: DU-145.
A short description of assay [8]: Cell cycle arrest in human DU145 cells assessed as accumulation at S phase at 2 uM after 48 hrs by propidium iodide staining based flow cytometry (reference value: 1.59 %). The format is functional. Particulars: DU-145.
A short description of assay [9]: Cell cycle arrest in human DU145 cells assessed as accumulation at G2/M phase at 2 uM after 48 hrs by propidium iodide staining based flow cytometry (reference value: 5.96 %). The format is functional. Particulars: DU-145.
Assay [10] deals with DU-145. Description: Change in mitochondrial membrane potential in human DU145 cells at 1 uM after 48 hrs by JC-1 staining based flow cytometry (reference value: 95.6%). The format is functional.
For assay [11], the system named is DU-145. The assay can be described thus: Induction of apoptosis in human DU145 cells assessed as necrotic cells at 1 uM after 48 hrs by annexin V-FITC/PI staining based flow cytometry (reference value: 0.67 %). The format is functional.
In assay [12] the test system is DU-145. Description: Induction of apoptosis in human DU145 cells assessed as late apoptotic cells at 1 uM after 48 hrs by annexin V-FITC/PI staining based flow cytometry (reference value: 1.63 %). The assay is classed as functional.
Assay [13] relates to DU-145. Description: Induction of apoptosis in human DU145 cells assessed as viable cells at 1 uM after 48 hrs by annexin V-FITC/PI staining based flow cytometry (reference value: 95.57 %). The format is functional. Particulars: DU-145, 48 h, read-out: Activity.
In assay [14] the test system is DU-145. Description: Induction of apoptosis in human DU145 cells at assessed as early apoptotic cells 1 uM after 48 hrs by annexin V-FITC/PI staining based flow cytometry (reference value: 2.13 %). The assay is classed as functional.
Assay [15] relates to DU-145. The assay can be described thus: Induction of apoptosis in human DU145 cells assessed as necrotic cells at 2 uM after 48 hrs by annexin V-FITC/PI staining based flow cytometry (reference value: 0.67 %). The assay is classed as functional.
Assay [16] has as its system DU-145. The assay can be described thus: Induction of apoptosis in human DU145 cells assessed as late apoptotic cells at 2 uM after 48 hrs by annexin V-FITC/PI staining based flow cytometry (reference value: 1.63 %). The format is functional.
Assay [17] relates to DU-145. The assay can be described thus: Induction of apoptosis in human DU145 cells assessed as viable cells at 2 uM after 48 hrs by annexin V-FITC/PI staining based flow cytometry (reference value: 95.57 %). The format is functional. Particulars: DU-145, 48 h, read-out: Activity.
Assay [18] deals with DU-145. The assay can be described thus: Induction of apoptosis in human DU145 cells assessed as early apoptotic cells at 2 uM after 48 hrs by annexin V-FITC/PI staining based flow cytometry (reference value: 2.13 %). The assay is classed as functional.
Assay [19] can be described thus: Down regulation of CDK4 expression in human DU145 cells at 1 to 2 uM after 48 hrs by Western blot analysis. Particulars: DU-145. The assay is classed as functional, cell-based. On the technique in general: Immunoblotting shows a protein as a band on a membrane.
Assay [20] in a line: Up regulation of Cip1/p21 expression in human DU145 cells at 1 to 2 uM after 48 hrs by Western blot analysis. Particulars: DU-145. The assay is classed as functional, cell-based.
Assay [21] in a line: Up regulation of Kip1/p27 expression in human DU145 cells at 1 to 2 uM after 48 hrs by Western blot analysis. The assay is classed as functional, cell-based. Particulars: DU-145.
Assay [22] has as its system DU-145. Description: Change in mitochondrial membrane potential in human DU145 cells at 2 uM after 48 hrs by JC-1 staining based flow cytometry (reference value: 95.6%). The format is functional.

As a reminder, the IC50 is the concentration at which inhibition is half-maximal.

`O=C1Nc2ccc(Cl)cc2C12Nc1ccccc1-n1cccc12` (stereo not given): the IC50 in the assay on HeLa is 4.88 µM; with A549, 4.81 µM; in assay [1] it was 4.79 µM; with HT-29, 11 µM; in the assay on MDA-MB-231, 26.3 µM.

With `O=C1N(Cc2ccccc2)c2ccccc2C12Nc1ccccc1-n1cccc12` (stereo not given), the IC50 in the assay on HeLa turned out to be 20 µM; in the assay with A549, 17 µM; in assay [1], 13.2 µM; in the assay with HT-29 it was 17.4 µM; in the assay on MDA-MB-231, 26.2 µM.

Take `Cc1ccc2c(c1)C1(Nc3ccccc3-n3cccc31)C(=O)N2` (stereo not given): the IC50 worked out at 11.2 µM in the assay with HeLa; 13.5 µM in the assay with A549; 12.5 µM in [1]; 14.5 µM in the assay with HT-29; 22.1 µM in the assay on MDA-MB-231.

`O=C1N(Cc2ccc3c(c2)OCO3)c2ccc(Cl)cc2C12Nc1ccccc1-n1cccc12` (stereo not given): the IC50 amounted to 2.45 µM in the assay with HeLa; 2.11 µM in the assay on A549; 1.16 µM in assay [1]; 1.63 µM with HT-29; 2.34 µM in the assay on MDA-MB-231. The Activity was found to be 6.98% in assay [2]; 85.2% in assay [3]; 1.21% in assay [4]; 4.2% in assay [5]; 29.1% in assay [6]; 58.8% in assay [7]. For the same compound, the Activity came out at 2.94% in assay [8]; 4.46% in [9]; 87.7% with DU-145 [10]; 2% in the assay on DU-145 [11]; 15.42% in the assay with DU-145 [12]; 21.95% in the assay on DU-145 [14]. Moreover, the Activity was determined as 1.63% with DU-145 [15], 16.03% in the assay on DU-145 [16], 27.36% in the assay with DU-145 [18] and 72.2% in the assay with DU-145 [22]. Also, the viability at 1 µM with DU-145 [13] came out at 60.6%. In the assay on DU-145 [17], the viability at 2 µM was determined as 55%. Besides, the result in assay [19], in assay [20] and in assay [21] was Active.

Take `O=C1Nc2ccc(F)cc2C12Nc1ccccc1-n1cccc12` (stereo not given): the IC50 with HeLa is 15.1 µM; in the assay with A549, 23.4 µM; in [1], 12.7 µM; in the assay with HT-29, 15.8 µM; in the assay with MDA-MB-231 it was 31.4 µM.

With `COc1cccc2c1C(=O)c1c(O)c3c(c(O)c1C2=O)C[C@@](O)(C(=O)CO)C[C@@H]3O[C@H]1C[C@H](N)[C@H](O)[C@H](C)O1` [DOXORUBICIN], the IC50 with A549 came out at 1.06 µM; in assay [1], 1.82 µM; with HT-29, 1.16 µM; with MDA-MB-231 it was 1.67 µM.

Consider `O=C1N(Cc2ccc3c(c2)OCO3)c2ccccc2C12Nc1ccccc1-n1cccc12` (stereo not given), for which the IC50 with HeLa came to 4.53 µM; in the assay on A549 it was 7.59 µM; in assay [1], 3.98 µM; in the assay on HT-29 it was 15.1 µM; in the assay on MDA-MB-231 it was 30 µM.

On to `O=C1Nc2ccc([N+](=O)[O-])cc2C12Nc1ccccc1-n1cccc12` (stereo not given), for which the IC50 in the assay with HeLa is 12.9 µM; in the assay on A549, 16.1 µM; in [1] it was 22.7 µM; with HT-29, 15.6 µM; in the assay with MDA-MB-231, 17.4 µM.

As for `O=C1Nc2ccccc2C12Nc1ccccc1-n1cccc12` (stereo not given), the IC50 was determined as 4.57 µM in the assay on HeLa; 7.1 µM in the assay with A549; 6.03 µM in assay [1]; 4.11 µM in the assay on HT-29; 8.84 µM in the assay with MDA-MB-231.

Turning to `O=C1Nc2ccc(I)cc2C12Nc1ccccc1-n1cccc12` (stereo not given), the IC50 with HeLa is 16.7 µM; in the assay with A549, 22.4 µM; in assay [1], 15.7 µM; with HT-29, 19 µM; with MDA-MB-231 it was 27.1 µM.

For the compound `O=C1Nc2ccc(Br)cc2C12Nc1ccccc1-n1cccc12` (stereo not given), the IC50 was found to be 16.4 µM in the assay with HeLa; 4.9 µM with A549; 3.98 µM in assay [1]; 17 µM in the assay with HT-29; 29.7 µM in the assay on MDA-MB-231.

Consider `COc1ccc2c(c1)C1(Nc3ccccc3-n3cccc31)C(=O)N2` (stereo not given), for which the half-inhibitory concentration (IC50) in the assay on HeLa turned out to be 14.8 µM; in the assay with A549, 13.8 µM; in assay [1] it was 11 µM; in the assay with HT-29, 14.7 µM; in the assay on MDA-MB-231, 15.7 µM.

Consider `O=C1N(Cc2ccccc2)c2ccc(Cl)cc2C12Nc1ccccc1-n1cccc12` (stereo not given), for which the IC50 in the assay on HeLa turned out to be 4.86 µM; with A549, 4.79 µM; in [1] it was 4.71 µM; with HT-29, 19 µM; with MDA-MB-231 it was 26.6 µM.

Turning to `O=C1N(Cc2ccccc2)c2ccc(Br)cc2C12Nc1ccccc1-n1cccc12` (stereo not given), the IC50 in the assay with HeLa was 21 µM; in the assay on A549, 16.6 µM; in assay [1] it was 11.2 µM; with HT-29, 18.1 µM; in the assay on MDA-MB-231, 23.7 µM.

For the compound `O=C1Nc2c(F)cccc2C12Nc1ccccc1-n1cccc12` (stereo not given), the IC50 in the assay with HeLa stood at 12.4 µM; in the assay with A549, 11.3 µM; in assay [1], 12.7 µM; in the assay with HT-29 it was 12.7 µM; in the assay on MDA-MB-231, 15.9 µM.
